Results as given in PubChem BioAssay AID324 (DTP/NCI, 2004).
Toxic doses and inconclusive results are not listed.

System: CD2F1 mice, AMSA-resistant P388 leukemia ip, median survival T/C
Assay: NCI In Vivo Anticancer Drug Screen. Data for tumor model P388 Leukemia resistant to AMSA; NSC 249992 (intraperitoneal) in CD2F1 (CDF1) mice
Settings: endpoint: median survival time, higher = longer survival
Protocol: The antitumor activity of compounds was measured in mice bearing transplantable tumors. Survival or tumor size were measured and the results are expressed as the measurement made in the treated group (T) divided by the measurement made in the vehicle treated control group (C). The tumor model used in this assay is P388 Leukemia resistant to AMSA; NSC 249992 (intraperitoneal) in CD2F1 (CDF1) mice

[1] = dose: 1.94 mg/kg/injection, schedule: Q04DX003 (ip), vehicle: water
[2] = dose: 3.24 mg/kg/injection, schedule: Q04DX003 (ip), vehicle: water
[3] = dose: 5.4 mg/kg/injection, schedule: Q04DX003 (ip), vehicle: water
[4] = dose: 9.0 mg/kg/injection, schedule: Q04DX003 (ip), vehicle: water
[5] = dose: 15.0 mg/kg/injection, schedule: Q04DX003 (ip), vehicle: water
[6] = dose: 0.13 mg/kg/injection, schedule: Q04DX003 (ip), vehicle: water
[7] = dose: 0.21 mg/kg/injection, schedule: Q04DX003 (ip), vehicle: water
[8] = dose: 0.6 mg/kg/injection, schedule: Q04DX003 (ip), vehicle: water

COc1cccc2c1C(=N)c1c(O)c3c(c(O)c1C2=O)C[C@@](O)(C(C)=O)C[C@@H]3OC1CC(N)C(O)C(C)O1 (some centres undefined)
T/C [1]: 98 % of control
T/C [2]: 98 % of control
T/C [3]: 97 % of control
T/C [4]: 100 % of control
T/C [5]: 100 % of control

CCCCCCCC(=O)OCC(=O)[C@]1(O)Cc2c(O)c3c(c(O)c2[C@@H](OC2CC(N)C(O)C(C)O2)C1)C(=O)c1c(OC)cccc1C3=O (some centres undefined)
T/C (dose: 13.3 mg/kg/injection, schedule: Q04DX003 (ip), vehicle: water): 102 % of control

CO[C@H]1Nc2c(ccc(C)c2O)C(=O)N2C=C(/C=C/C(N)=O)C[C@@H]12
T/C (dose: 0.08 mg/kg/injection, schedule: Q04DX003 (ip), vehicle: saline + alcohol): 104 % of control
T/C (dose: 0.13 mg/kg/injection, schedule: Q04DX003 (ip), vehicle: saline + alcohol): 123 % of control

CC1OC(OC2CC(O)(C(=O)CO)Cc3c(O)c4c(c(O)c32)C(=O)c2ccccc2C4=O)CC(N)C1O (centres undefined)
T/C [6]: 114 % of control
T/C [7]: 115 % of control
T/C [8]: 117 % of control
T/C (dose: 1.0 mg/kg/injection, schedule: Q04DX003 (ip), vehicle: water): 123 % of control

COc1cccc2c1C(=O)c1c(O)c3c(c(O)c1C2=O)C[C@@](O)(C(C)=O)C[C@@H]3OC1CC(NCc2ccccc2)C(O)C(C)O1 (some centres undefined)
T/C (dose: 6.48 mg/kg/injection, schedule: Q04DX003 (ip), vehicle: water): 113 % of control
T/C (dose: 10.8 mg/kg/injection, schedule: Q04DX003 (ip), vehicle: water): 117 % of control
T/C (dose: 18.0 mg/kg/injection, schedule: Q04DX003 (ip), vehicle: water): 104 % of control

COc1cccc2c1C(=O)c1c(O)c3c(c(O)c1C2=O)C[C@@](O)(C(=O)CO)C[C@@H]3OC1CC(NCc2ccccc2)C(O)C(C)O1 (some centres undefined)
T/C (dose: 3.89 mg/kg/injection, schedule: Q04DX003 (ip), vehicle: water): 123 % of control
T/C (dose: 30.0 mg/kg/injection, schedule: Q04DX003 (ip), vehicle: water): 100 % of control

NCCCCS(=O)(=O)Nc1ccc(Nc2c3ccccc3nc3cc([N+](=O)[O-])ccc23)cc1
T/C (dose: 38.9 mg/kg/injection, schedule: Q04DX003 (ip), vehicle: water): 93 % of control
T/C (dose: 64.8 mg/kg/injection, schedule: Q04DX003 (ip), vehicle: water): 93 % of control
T/C (dose: 108.0 mg/kg/injection, schedule: Q04DX003 (ip), vehicle: water): 95 % of control

CN(C)c1ccc(Nc2c3ccccc3nc3ccccc23)cc1
T/C (dose: 13.0 mg/kg/injection, schedule: Q04DX003 (ip), vehicle: saline with Tween-80): 100 % of control
T/C (dose: 21.6 mg/kg/injection, schedule: Q04DX003 (ip), vehicle: saline with Tween-80): 98 % of control
T/C (dose: 25.9 mg/kg/injection, schedule: Q04DX003 (ip), vehicle: saline): 101 % of control
T/C (dose: 36.0 mg/kg/injection, schedule: Q04DX003 (ip), vehicle: saline with Tween-80): 96 % of control
T/C (dose: 43.2 mg/kg/injection, schedule: Q04DX003 (ip), vehicle: saline): 104 % of control
T/C (dose: 60.0 mg/kg/injection, schedule: Q04DX003 (ip), vehicle: saline with Tween-80): 100 % of control
T/C (dose: 72.0 mg/kg/injection, schedule: Q04DX003 (ip), vehicle: saline): 100 % of control
T/C (dose: 100.0 mg/kg/injection, schedule: Q04DX003 (ip), vehicle: saline with Tween-80): 103 % of control

CCC1(O)CC2CN(CCc3c([nH]c4ccccc34)C(C(=O)OC)(c3cc4c(cc3OC)N(C)C3C(O)(C(N)=O)C(O)C5(CC)C=CCN6CCC43C65)C2)C1 (centres undefined) (tested in a mixture with another compound)
T/C (dose: 0.5 mg/kg/injection, schedule: Q04DX003 (ip), vehicle: clinical formulation): 150 % of control
T/C (dose: 0.83 mg/kg/injection, schedule: Q04DX003 (ip), vehicle: clinical formulation): 162 % of control

NC(=O)c1csc(C2OC(CO)C(O)C2O)n1 (centres undefined)
T/C (dose: 330.0 mg/kg/injection, schedule: Q01DX009 (ip), vehicle: water): 188 % of control
T/C (dose: 500.0 mg/kg/injection, schedule: Q01DX009 (ip), vehicle: water): 88 % of control

CC(=O)C1(O)Cc2c(O)c3c(c(O)c2C(OC2CC(N)C(O)C(C)O2)C1)C(=O)c1ccccc1C3=O (centres undefined)
T/C [6]: 111 % of control
T/C [7]: 122 % of control
T/C (dose: 0.36 mg/kg/injection, schedule: Q04DX003 (ip), vehicle: water): 124 % of control
T/C [8]: 105 % of control

CC(CN1CC(=O)NC(=O)C1)N1CC(=O)NC(=O)C1 (centres undefined)
T/C (dose: 300.0 mg/kg/injection, schedule: Q04DX003 (ip), vehicle: saline): 198 % of control

COc1cc2c[n+](C)c3c4cc5c(cc4ccc3c2cc1OC)OCO5
T/C (dose: 25.92 mg/kg/injection, schedule: Q04DX003 (ip), vehicle: distilled water + Tween-80): 118 % of control
T/C (dose: 43.2 mg/kg/injection, schedule: Q04DX003 (ip), vehicle: distilled water + Tween-80): 123 % of control
T/C (dose: 120.0 mg/kg/injection, schedule: Q04DX003 (ip), vehicle: distilled water + Tween-80): 115 % of control

CC[C@](O)(C(=O)O)c1cc2n(c(=O)c1CO)Cc1cc3ccccc3nc1-2
T/C (dose: 18.0 mg/kg/injection, schedule: Q04DX003 (ip), vehicle: saline): 192 % of control
T/C (dose: 30.0 mg/kg/injection, schedule: Q04DX003 (ip), vehicle: saline): 193 % of control
T/C (dose: 50.0 mg/kg/injection, schedule: Q04DX003 (ip), vehicle: saline): 240 % of control

COc1cccc2c1C(=O)c1c(O)c3c(c(O)c1C2=O)C[C@@](O)(/C(C)=N/NC(=O)c1ccccc1)C[C@@H]3OC1CC(N)C(O)C(C)O1 (some centres undefined)
T/C [1]: 109 % of control
T/C [2]: 117 % of control
T/C [3]: 123 % of control
T/C [4]: 123 % of control
T/C [5]: 115 % of control

COc1cc2cc3c4cc(OC)c(OC)cc4cc[n+]3c(C)c2cc1OC (tested in a mixture with another compound)
T/C (dose: 25.9 mg/kg/injection, schedule: Q04DX003 (ip), vehicle: water): 110 % of control
T/C (dose: 43.2 mg/kg/injection, schedule: Q04DX003 (ip), vehicle: water): 116 % of control

O=C(Nc1ccc(C2=NCCCN2)cc1)c1ccc(C(=O)Nc2ccc(C3=NCCCN3)cc2)cc1
T/C (dose: 10.8 mg/kg/injection, schedule: Q04DX003 (ip), vehicle: Klucel (hydroxypropylcellulose) (HPC)): 167 % of control
T/C (dose: 18.0 mg/kg/injection, schedule: Q04DX003 (ip), vehicle: Klucel (hydroxypropylcellulose) (HPC)): 185 % of control
T/C (dose: 30.0 mg/kg/injection, schedule: Q04DX003 (ip), vehicle: Klucel (hydroxypropylcellulose) (HPC)): 278 % of control
T/C (dose: 50.0 mg/kg/injection, schedule: Q04DX003 (ip), vehicle: Klucel (hydroxypropylcellulose) (HPC)): 95 % of control

CN(Cc1cnc2nc(N)nc(N)c2n1)c1ccc(C(=O)N[C@@H](CCC(=O)O)C(=O)O)cc1
T/C (dose: 3.0 mg/kg/injection, schedule: Q01DX005 (ip), vehicle: sodium bicarbonate): 173 % of control
T/C (dose: 3.5 mg/kg/injection, schedule: Q01DX005 (ip), vehicle: sodium bicarbonate): 171 % of control
T/C (dose: 4.0 mg/kg/injection, schedule: Q01DX005 (ip), vehicle: sodium bicarbonate): 164 % of control
T/C (dose: 4.5 mg/kg/injection, schedule: Q01DX005 (ip), vehicle: sodium bicarbonate): 177 % of control
T/C (dose: 6.48 mg/kg/injection, schedule: Q04DX003 (ip), vehicle: sodium bicarbonate): 165 % of control
T/C (dose: 10.8 mg/kg/injection, schedule: Q04DX003 (ip), vehicle: sodium bicarbonate): 180 % of control
T/C (dose: 18.0 mg/kg/injection, schedule: Q04DX003 (ip), vehicle: sodium bicarbonate): 196 % of control
T/C (dose: 30.0 mg/kg/injection, schedule: Q04DX003 (ip), vehicle: sodium bicarbonate): 114 % of control
T/C (dose: 50.0 mg/kg/injection, schedule: Q04DX003 (ip), vehicle: sodium bicarbonate): 98 % of control

C[n+]1ccc(Nc2ccc(NC(=O)c3ccc(Nc4cc[n+](C)c5ccc(N)cc45)cc3)cc2)cc1
T/C (dose: 1.73 mg/kg/injection, schedule: Q04DX003 (ip), vehicle: water): 155 % of control
T/C (dose: 4.8 mg/kg/injection, schedule: Q04DX003 (ip), vehicle: water): 154 % of control
T/C (dose: 8.0 mg/kg/injection, schedule: Q04DX003 (ip), vehicle: water): 182 % of control

CO[C@H](C(=O)[C@@H](O)[C@@H](C)O)[C@@H]1Cc2cc3cc(OC4CC(OC5CC(O)C(O)C(C)O5)C(O)C(C)O4)c(C)c(O)c3c(O)c2C(=O)[C@H]1OC1CC(OC2CC(OC3CC(C)(O)C(O)C(C)O3)C(O)C(C)O2)C(O)C(C)O1 (some centres undefined)
T/C (dose: 0.13 mg/kg/injection, schedule: Q01DX005 (ip), vehicle: saline): 112 % of control
T/C (dose: 0.22 mg/kg/injection, schedule: Q01DX005 (ip), vehicle: saline): 113 % of control
T/C (dose: 0.36 mg/kg/injection, schedule: Q01DX005 (ip), vehicle: saline): 118 % of control
